From US9346815B2, “5-chloro-2-difluoromethoxyphenyl pyrazolopyrimidine compounds, compositions and methods of use thereof” (Genentech, Inc., priority 2014, dated 2016) come the findings set out here.

Where a name gives a salt, the structure may show the parent alone. Read-outs that look alike come from different tables or passages of the source.

For experiment [1], the target named is isolated recombinant JAK2 kinase domain (Homo sapiens (Human), UniProt O60674). In words: JAK2 enzyme assay (Caliper LabChip, peptide phosphorylation). The experiment is classed as biochemical. To be noted: 25 μM ATP.
For experiment [2], the target named is isolated recombinant JAK1 kinase domain (Homo sapiens (Human), UniProt P23458). Kind of experiment: JAK1 enzyme assay (Caliper LabChip, peptide phosphorylation). It is filed as biochemical.
Experiment [3] deals with JAK1-dependent STAT6 phosphorylation downstream of IL-13 stimulation in BEAS-2B human bronchial epithelial cells. Kind of experiment: JAK1 pathway assay in BEAS-2B cells (IL-13-pSTAT6, MSD). To be noted: read-out: IL13-pSTAT6 EC50 (uM)_BEAS-2B. The experiment is classed as cell-based. The method, then:
JAK1 Pathway Assay in Cell Lines was Carried Out as Follows:
Inhibitor potency (EC50) was determined in cell-based assays designed to measure JAK1 dependent STAT phosphorylation.
In one assay approach, TF-1 human erythroleukemia cells obtained from the American Type Culture Collection (ATCC; Manassas, Va.) were used to measure JAK1-dependent STAT6 phosphorylation downstream of IL-13 stimulation. Prior to use in the assays, TF-1 cells were starved of GM-CSF overnight in OptiMEM medium (Life Technologies, Grand Island, N.Y.) supplemented with 0.5% charcoal/dextran stripped fetal bovine serum (FBS), 0.1 mM non-essential amino acids (NEAA), and 1 mM sodium pyruvate. The assays were run in 384-well plates in serum-free OptiMEM medium using 300,000 cells per well. In a second assay approach, BEAS-2B human bronchial epithelial cells obtained from ATCC were plated at 100,000 cells per well of a 96-well plate one day prior to the experiment. The BEAS-2B assay was run in complete growth medium (bronchial epithelial basal medium plus bulletkit; Lonza; Basel, Switzerland).
Test compounds were serially diluted 1:2 in DMSO and then diluted 1:50 in medium just before use. Diluted compounds were added to the cells, for a final DMSO concentration of 0.2%, and incubated for 30 min (for the TF-1 assay) or 1 hr (for the BEAS-2B assay) at 37° C. Then, cells were stimulated with human recombinant cytokine at their respective EC90 concentrations, as previously determined for each individual lot. Cells were stimulated with IL-13 (R&D Systems, Minneapolis, Minn.) for 15 min at 37° C. The TF-1 cell reactions were stopped by the direct addition of 10× lysis buffer (Cell Signaling Technologies, Danvers, Mass.), whereas the BEAS-2B cell incubations were halted by the removal of medium and addition of 1× lysis buffer. The resultant samples were frozen in the plates at −80° C. Compound mediated inhibition of STAT6 phosphorylation was measured in the cell lysates using MesoScale Discovery (MSD) technology (Gaithersburg, Md.).

Setting [4] is: isolated recombinant JAK1 kinase domain, 25 μM ATP.

By Ki is commonly meant a dissociation constant, usually derived from enzyme kinetics or from competition with a known ligand. Usually EC50 stands for the concentration at which the effect is half-maximal.

Chain of isolated recombinant JAK2 kinase domain (O60674 849-1124): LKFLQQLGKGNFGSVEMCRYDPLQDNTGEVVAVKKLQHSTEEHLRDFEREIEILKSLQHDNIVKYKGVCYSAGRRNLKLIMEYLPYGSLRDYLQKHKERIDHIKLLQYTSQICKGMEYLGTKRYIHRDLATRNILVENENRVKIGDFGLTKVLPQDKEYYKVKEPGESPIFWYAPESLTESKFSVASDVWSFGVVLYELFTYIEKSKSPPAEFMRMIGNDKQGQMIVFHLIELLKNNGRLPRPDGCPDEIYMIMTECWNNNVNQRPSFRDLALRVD
Chain of isolated recombinant JAK1 kinase domain (P23458 875-1153): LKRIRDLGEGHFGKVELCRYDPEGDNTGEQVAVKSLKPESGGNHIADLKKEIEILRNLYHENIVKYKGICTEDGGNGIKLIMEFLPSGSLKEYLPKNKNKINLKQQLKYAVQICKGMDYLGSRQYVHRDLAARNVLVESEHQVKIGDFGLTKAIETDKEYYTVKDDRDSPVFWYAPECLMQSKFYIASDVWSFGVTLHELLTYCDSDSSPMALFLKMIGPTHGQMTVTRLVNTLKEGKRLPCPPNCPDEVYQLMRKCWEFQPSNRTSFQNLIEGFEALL

With `CN(CCn1cc(NC(=O)c2cnn3cccnc23)c(-c2cc(Cl)ccc2OC(F)F)n1)CC1CCC(=O)O1` (stereo not shown) [Example 390, N-[3-[5-chloro-2-(difluoromethoxy)phenyl]-1-(2-[methyl[(5-oxooxolan-2-yl)methyl]amino]ethyl)-1H-pyrazol-4-yl]pyrazolo[1,5-a]pyrimidine-3-carboxamide], the values for the Ki in experiment [1] and in experiment [2] (setting [4]) were 0.84 nM and 1.28 nM, respectively. The concentration for a half-maximal effect (EC50) in experiment [3] was 0.0424 µM.
For the compound `CN(C1CCN(C(=O)Cn2cc(NC(=O)c3cnn4cccnc34)c(-c3cc(Cl)ccc3OC(F)F)n2)CC1)C1(C#N)CC1` [Example 431, N-(3-(5-chloro-2-(difluoromethoxy)phenyl)-1-(2-(4-((1-cyanocyclopropyl)(methyl)amino)piperidin-1-yl)-2-oxoethyl)-1H-pyrazol-4-yl)pyrazolo[1,5-a]pyrimidine-3-carboxamide], the Ki in experiment [1] was 0.74 nM; in experiment [2] (setting [4]) it was 0.29 nM. Moreover, the half-maximal effective concentration (EC50) in experiment [3] is 0.0029 µM.
`CC(C)(C)OC(=O)N1CC[C@@H](n2cc(NC(=O)c3cnn4cccnc34)c(-c3cc(Cl)ccc3OC(F)F)n2)[C@H](O)C1` (single isomer, unassigned) [Example 354]: the Ki was found to be 1.05 nM in experiment [1] and 0.72 nM in experiment [2] (setting [4]). Also, in experiment [3], the half-maximal effective concentration (EC50) is 0.024 µM.
Take `COC(=O)CNC1CCN(C(=O)Cn2cc(NC(=O)c3cnn4cccnc34)c(-c3cc(Cl)ccc3OC(F)F)n2)CC1` [Example 329, methyl 2-[[1-(2-[3-[5-chloro-2-(difluoromethoxy)phenyl]-4-[pyrazolo[1,5-a]pyrimidine-3-amido]-1H-pyrazol-1-yl]acetyl)piperidin-4-yl]amino]acetate formate]: the Ki is 0.76 nM in experiment [1] and 0.3 nM in experiment [2]. Also, the EC50 in experiment [3] stood at 0.0115 µM.
Take `O=C(Nc1cn(CC(=O)N2CCN(Cc3ncco3)CC2)nc1-c1cc(Cl)ccc1OC(F)F)c1cnn2cccnc12` [Example 380, N-[3-[5-chloro-2-(difluoromethoxy)phenyl]-1-[2-[4-(1,3-oxazol-2-ylmethyl)piperazin-1-yl]-2-oxoethyl]-1H-pyrazol-4-yl]pyrazolo[1,5-a]pyrimidine-3-carboxamide]: the Ki in experiment [1] is 0.68 nM; in experiment [2] (setting [4]), 0.3 nM. In experiment [3], the EC50 turned out to be 0.0481 µM.
For `N#CCCCNC1CCN(C(=O)Cn2cc(NC(=O)c3cnn4cccnc34)c(-c3cc(Cl)ccc3OC(F)F)n2)CC1` [Example 456, N-(3-(5-chloro-2-(difluoromethoxy)phenyl)-1-(2-(4-(3-cyanopropyl-amino)piperidin-1-yl)-2-oxoethyl)-1H-pyrazol-4-yl)pyrazolo[1,5-a]pyrimidine-3-carboxamide], the Ki in experiment [1] turned out to be 1.11 nM; in experiment [2] (setting [4]), 0.49 nM. Moreover, the concentration giving a half-maximal response (EC50) in experiment [3] was determined as 0.041 µM.
For `N#CC1CCN(C2CCN(C(=O)Cn3cc(NC(=O)c4cnn5cccnc45)c(-c4cc(Cl)ccc4OC(F)F)n3)CC2)CC1` [Example 462, N-(3-(5-chloro-2-(difluoromethoxy)phenyl)-1-(2-(4-cyano-1,4′-bipiperidin-1′-yl)-2-oxoethyl)-1H-pyrazol-4-yl)pyrazolo[1,5-a]pyrimidine-3-carboxamide], the inhibition constant (Ki) in experiment [1] came out at 0.86 nM; in experiment [2] (setting [4]), 0.38 nM. Also, the EC50 in experiment [3] worked out at 0.0108 µM.
Turning to `O=C(Nc1cn(CCNCc2ccccn2)nc1-c1cc(Cl)ccc1OC(F)F)c1cnn2cccnc12` [Example 314, N-[3-[5-chloro-2-(difluoromethoxy)phenyl]-1-[2-[(pyridin-2-ylmethyl)amino]ethyl]-1H-pyrazol-4-yl]pyrazolo[1,5-a]pyrimidine-3-carboxamide], the Ki was found to be 0.39 nM in experiment [1] and 0.62 nM in experiment [2] (setting [4]). Besides, the EC50 in experiment [3] was found to be 0.0995 µM.
In the case of `COC(=O)C1(C)CCN(CCN2CCN(C(=O)Cn3cc(NC(=O)c4cnn5cccnc45)c(-c4cc(Cl)ccc4OC(F)F)n3)CC2)CC1` [Example 335, methyl 1-[2-[4-(2-[3-[5-chloro-2-(difluoromethoxy)phenyl]-4-[pyrazolo[1,5-a]pyrimidine-3-amido]-1H-pyrazol-1-yl]acetyl)piperazin-1-yl]ethyl]-4-methylpiperidine-4-carboxylate formate], the Ki in experiment [1] stood at 2.22 nM; in experiment [2] (setting [4]), 0.84 nM. Further, in experiment [3], the 50% effective concentration (EC50) turned out to be 0.0121 µM.
`O=C(Nc1cn(CC(=O)N2CCC(C(=O)O)CC2)nc1-c1cc(Cl)ccc1OC(F)F)c1cnn2cccnc12` [Example 342, 1-(2-[3-[5-chloro-2-(difluoromethoxy)phenyl]-4-[pyrazolo[1,5-a]pyrimidine-3-amido]-1H-pyrazol-1-yl]acetyl)piperidine-4-carboxylic acid]: the inhibitory constant (Ki) in experiment [1] is 0.2 nM; in experiment [2] (setting [4]), 0.19 nM. The EC50 in experiment [3] is 1.81 µM.
Turning to `CC(C#N)CNC1CCN(C(=O)Cn2cc(NC(=O)c3cnn4cccnc34)c(-c3cc(Cl)ccc3OC(F)F)n2)CC1` (stereo not shown) [Example 419, N-(3-(5-chloro-2-(difluoromethoxy)phenyl)-1-(2-(4-(2-cyanopropyl-amino)piperidin-1-yl)-2-oxoethyl)-1H-pyrazol-4-yl)pyrazolo[1,5-a]pyrimidine-3-carboxamide], the inhibition constant Ki in experiment [1] amounted to 1.06 nM; in experiment [2] (setting [4]), 0.41 nM. In experiment [3], the EC50 turned out to be 0.0313 µM.
On to `N#CC1CCN(C2CCN(C(=O)Cn3cc(NC(=O)c4cnn5cccnc45)c(-c4cc(Cl)ccc4OC(F)F)n3)CC2)C1` (stereo not shown) [Example 409, N-(3-(5-chloro-2-(difluoromethoxy)phenyl)-1-(2-(4-(3-cyanopyrrolidin-1-yl)piperidin-1-yl)-2-oxoethyl)-1H-pyrazol-4-yl)pyrazolo[1,5-a]pyrimidine-3-carboxamide], for which, in experiment [1], the Ki was 0.89 nM. In addition, the concentration for a half-maximal effect (EC50) in experiment [3] came out at 0.0196 µM.
Turning to `CCOC(=O)CNC1CCN(C(=O)Cn2cc(NC(=O)c3cnn4cccnc34)c(-c3cc(Cl)ccc3OC(F)F)n2)CC1` [Example 364, ethyl 2-[[1-(2-[3-[5-chloro-2-(difluoromethoxy)phenyl]-4-[pyrazolo[1,5-a]pyrimidine-3-amido]-1H-pyrazol-1-yl]acetyl)piperidin-4-yl]amino]acetate], in experiment [1], the Ki came out at 1.6 nM. The EC50 in experiment [3] stood at 0.0952 µM.
For the compound `C[C@H](NCCn1cc(NC(=O)c2cnn3cccnc23)c(-c2cc(Cl)ccc2OC(F)F)n1)c1ccccc1` [Example 385, N-[3-[5-chloro-2-(difluoromethoxy)phenyl]-1-(2-[[(1S)-1-phenylethyl]amino]ethyl)-1H-pyrazol-4-yl]pyrazolo[1,5-a]pyrimidine-3-carboxamide], the inhibitory constant (Ki) in experiment [1] is 0.3 nM. Also, the EC50 in experiment [3] worked out at 0.163 µM.
In the case of `O=C(Nc1cn(CCNCc2cccnc2)nc1-c1cc(Cl)ccc1OC(F)F)c1cnn2cccnc12` [Example 368, N-[3-[5-chloro-2-(difluoromethoxy)phenyl]-1-[2-[(pyridin-3-ylmethyl)amino]ethyl]-1H-pyrazol-4-yl]pyrazolo[1,5-a]pyrimidine-3-carboxamide], the inhibition constant (Ki) in experiment [1] was 0.51 nM. For the same compound, the EC50 in experiment [3] worked out at 0.056 µM.
On to `C[C@@H](NCCn1cc(NC(=O)c2cnn3cccnc23)c(-c2cc(Cl)ccc2OC(F)F)n1)c1ccccc1` [Example 384, N-[3-[5-chloro-2-(difluoromethoxy)phenyl]-1-(2-[[(1R)-1-phenylethyl]amino]ethyl)-1H-pyrazol-4-yl]pyrazolo[1,5-a]pyrimidine-3-carboxamide], for which the inhibition constant Ki in experiment [1] was 0.23 nM. Besides, the concentration giving a half-maximal response (EC50) in experiment [3] was 0.139 µM.
